According to DBAASP:
In brackets after ≈: the same amount, converted by molar mass. One block for each molecule: values may come before it.

Assays:
Test in all cases: ≥ marks a high value that may be exact or a test limit, other limits are often not marked, values filed in µg/mL are converted to µM
[1] = system: Enterococcus faecium NTCC 12697
[2] = system: Escherichia coli ATCC BAA-2340
[3] = system: Candida albicans ATCC 10231
[4] = system: Klebsiella pneumoniae ATCC 43816
[5] = system: Escherichia coli ATCC 8739
[6] = system: Escherichia coli NCTC 13846
[7] = system: Staphylococcus aureus ATCC 6538
[8] = system: Pseudomonas aeruginosa ATCC 9027
[9] = system: Candida albicans ATCC 2002
[10] = system: Staphylococcus aureus ATCC 25923
[11] = system: Pseudomonas aeruginosa CMCCB 10104
[12] = system: Staphylococcus aureus NCTC 12493
[13] = system: Escherichia coli ATCC 25922
[14] = system: Acinetobacter baumannii ATCC BAA-747
[15] = system: Acinetobacter baumannii 2982
[16] = system: Escherichia coli 850
[17] = system: Pseudomonas aeruginosa ATCC 27853
[18] = system: Klebsiella pneumoniae ATCC 700603
[19] = system: Escherichia coli 780
[20] = system: Acinetobacter baumannii 1980
[21] = system: Escherichia coli ATCC 25726
[22] = system: Pseudomonas aeruginosa 2760
[23] = system: Acinetobacter baumannii I NM8
[24] = system: Pseudomonas aeruginosa 9132
[25] = system: Staphylococcus aureus 725
[26] = system: Acinetobacter baumannii 4956
[27] = system: Acinetobacter baumannii ATCC 19606
[28] = system: Staphylococcus aureus 936
[29] = system: Streptococcus mutans ATCC 10449
[30] = system: Enterococcus faecalis NCTC 12697
[31] = system: Candida albicans NCTC 3179
[32] = system: Fusobacterium nucleatum NCTC 10562
[33] = system: Pseudomonas aeruginosa PAO239
[34] = system: Carnobacterium maltaromaticum UI49
[35] = system: Latilactobacillus sakei NCDO 2714
[36] = system: Weissella viridescens NCDO 1655
[37] = system: Latilactobacillus sakei 706
[38] = system: Pediococcus acidilactici CH
[39] = system: Latilactobacillus curvatus 89
[40] = system: Lacticaseibacillus casei NCDO 2713
[41] = system: Lactiplantibacillus plantarum UI50
[42] = system: Lactiplantibacillus plantarum 965
[43] = system: Lacticaseibacillus casei subsp. casei NCDO 161
[44] = system: Pediococcus pentosaceus Pac1.0
[45] = system: Pediococcus pentosaceus NCDO 990
[46] = system: Bacillus thuringiensis
[47] = system: Escherichia coli CCT 1371
[48] = system: Enterobacter cloacae ATCC 23355
[49] = system: Pseudomonas aeruginosa ATCC 15442
[50] = system: Staphylococcus epidermidis
[51] = system: Bacillus subtilis CCT 2471
[52] = system: Staphylococcus saprophyticus
[53] = system: Proteus mirabilis

MIC [1]: ≥ 512 µM
MIC [2]: ≥ 32 µM
MIC [3]: > 512 µM
MIC [4]: ≥ 64 µM
MIC [5]: ≥ 32 µM
MIC [6]: ≥ 32 µM
MIC [7]: > 512 µM
MIC [8]: 64 µM (≈ 125 µg/mL)
MIC [9]: 10.4 µM (≈ 20.2 µg/mL)
MIC [10]: 5.18 µM (≈ 10.1 µg/mL)
MIC [11]: 20.7 µM (≈ 40.4 µg/mL)
MIC [12]: ≥ 256 µM
MIC [13]: 10.4 µM (≈ 20.2 µg/mL)
MIC [14]: ≥ 512 µM
SMILES: CC[C@H](C)[C@H](NC(=O)[C@H](CC(N)=O)NC(=O)[C@@H](NC(=O)[C@H](C)N)C(C)C)C(=O)N1CCC[C@H]1C(=O)N[C@@H](Cc1ccccc1)C(=O)N[C@@H](CCCCN)C(=O)N[C@H](C(=O)N[C@@H](Cc1cnc[nH]1)C(=O)N[C@@H](Cc1ccccc1)C(=O)N[C@@H](CCCN=C(N)N)C(=O)N[C@H]1CSSC[C@@H](C(=O)O)NC(=O)[C@H](Cc2ccccc2)NC(=O)[C@H](C)NC(=O)[C@H](C)NC(=O)[C@H](CCCCN)NC1=O)C(C)C [AVNIPFKVHFRCKAAFC]

MIC [15]: 2.37 µM (≈ 4 µg/mL)
MIC [16]: 9.49 µM (≈ 16 µg/mL)
MIC [17]: 25 µM (≈ 42.1 µg/mL)
MIC [18]: 25 µM (≈ 42.1 µg/mL)
MIC [19]: 4.74 µM (≈ 8 µg/mL)
MIC [20]: 9.49 µM (≈ 16 µg/mL)
MIC [21]: 6 µM (≈ 10.1 µg/mL)
MIC [22]: ≥ 75.9 µM
MIC [23]: 3 µM (≈ 5.06 µg/mL)
MIC [24]: ≥ 38 µM
MIC [25]: 4.74 µM (≈ 8 µg/mL)
MIC [26]: 9.49 µM (≈ 16 µg/mL)
MIC [27]: 4.74 µM (≈ 8 µg/mL)
MIC [13]: 4.74 µM (≈ 8 µg/mL)
MIC [28]: 19 µM (≈ 32 µg/mL)
SMILES: CC(C)C[C@H](NC(=O)[C@@H](NC(=O)[C@H](CC(N)=O)NC(=O)[C@H](C)NC(=O)CNC(=O)[C@H](CC(C)C)NC(=O)[C@H](CCCN=C(N)N)NC(=O)[C@H](CC(C)C)NC(=O)[C@H](C)NC(=O)[C@H](CCCCN)NC(=O)CNC(=O)[C@H](CC(C)C)NC(=O)[C@H](CC(C)C)NC(=O)[C@H](CO)NC(=O)CNC(=O)[C@H](Cc1ccccc1)NC(=O)CN)C(C)C)C(N)=O [GFGSLLGKALRLGANVL]

MIC [29]: ≥ 50 µM
MIC [17]: > 100 µM
MIC [21]: ≥ 50 µM
MIC [30]: ≥ 100 µM
MIC [31]: ≥ 100 µM
MIC [10]: > 200 µM
MIC [32]: 12.5 µM (≈ 30.2 µg/mL)
MIC [33]: ≥ 100 µM
MIC [13]: > 200 µM
SMILES: CC[C@H](C)[C@H](NC(=O)CNC(=O)CNC(=O)[C@@H](NC(=O)[C@H](Cc1ccccc1)NC(=O)[C@H](C)NC(=O)[C@H](CCCCN)NC(=O)CNC(=O)[C@H](Cc1ccccc1)NC(=O)[C@H](CCCCN)NC(=O)CNC(=O)[C@H](CC(C)C)NC(=O)[C@H](CO)NC(=O)[C@H](Cc1cnc[nH]1)NC(=O)[C@H](C)NC(=O)[C@H](Cc1ccccc1)NC(=O)[C@H](CCC(=O)O)NC(=O)[C@H](CCCCN)NC(=O)[C@@H](NC(=O)CN)[C@@H](C)CC)C(C)C)C(=O)N[C@@H](CC(C)C)C(=O)N[C@@H](CC(N)=O)C(=O)N[C@@H](CCC(N)=O)C(=O)O [GIKEFAHSLGKFGKAFVGGILNQ]

MIC [34]: 6 µM (≈ 17.9 µg/mL)
MIC [35]: 0.06 µM (≈ 0.179 µg/mL)
MIC [36]: 0.02 µM (≈ 0.0597 µg/mL)
MIC [37]: 0.5 µM (≈ 1.49 µg/mL)
MIC [38]: 0.5 µM (≈ 1.49 µg/mL)
MIC [39]: 0.5 µM (≈ 1.49 µg/mL)
MIC [40]: 6 µM (≈ 17.9 µg/mL)
MIC [43]: 0.25 µM (≈ 0.746 µg/mL)
MIC [44]: 0.1 µM (≈ 0.299 µg/mL)
MIC [45]: 6 µM (≈ 17.9 µg/mL)
SMILES: CC[C@H](C)[C@H](NC(=O)[C@H](C)NC(=O)[C@@H](NC(=O)[C@H](C)NC(=O)CNC(=O)[C@H](CCSC)NC(=O)[C@H](CCC(N)=O)NC(=O)[C@H](CC(C)C)NC(=O)[C@H](CO)NC(=O)[C@H](Cc1ccc(O)cc1)NC(=O)[C@H](C)NC(=O)[C@H](CO)NC(=O)[C@H](CO)NC(=O)[C@@H](N)CCCCN)[C@@H](C)O)C(=O)N[C@@H](CCCCN)C(=O)N[C@@H](CCC(N)=O)C(=O)N[C@H](C(=O)N[C@@H](CCCCN)C(=O)N[C@@H](CCCCN)C(=O)N[C@@H](CC(C)C)C(=O)N[C@@H](Cc1ccccc1)C(=O)N[C@@H](CCCCN)C(=O)N[C@@H](CCCCN)C(=O)N[C@@H](Cc1c[nH]c2ccccc12)C(=O)NCC(=O)N[C@@H](Cc1c[nH]c2ccccc12)C(=O)O)C(C)C [KSSAYSLQMGATAIKQVKKLFKKWGW]
MIC [41]: 6 µM (≈ 17.9 µg/mL)
MIC [42]: 0.3 µM (≈ 0.896 µg/mL)

MIC [46]: ≥ 60 µM
MIC [7]: > 60 µM
MIC [47]: 6 µM (≈ 9.87 µg/mL)
MIC [48]: ≥ 60 µM
MIC [49]: 30 µM (≈ 49.4 µg/mL)
MIC [50]: ≥ 60 µM
MIC [51]: ≥ 60 µM
MIC [10]: 6 µM (≈ 9.87 µg/mL)
MIC [52]: 6 µM (≈ 9.87 µg/mL)
MIC [53]: ≥ 60 µM
MIC [13]: 6 µM (≈ 9.87 µg/mL)
SMILES: CC[C@H](C)[C@H](NC(=O)CNC(=O)[C@H](CCCCN)NC(=O)[C@H](CC(C)C)NC(=O)[C@H](CC(N)=O)NC(=O)[C@@H](N)CC(C)C)C(=O)N[C@@H](Cc1ccccc1)C(=O)N[C@@H](CCCCN)C(=O)N[C@@H](CCCCN)C(=O)N[C@H](C(=O)N[C@@H](C)C(=O)N[C@@H](CO)C(=O)N[C@@H](CC(C)C)C(=O)N[C@@H](CC(C)C)C(=O)N[C@H](C(=O)O)[C@@H](C)O)C(C)C [LNLKGIFKKVASLLT]
